Results published in the C3SDB collision cross section collection.

Conditions: instrument: DT, stepped-field

collision cross section (N2) ([M+Na]+) [Å²]	collision cross section (N2) ([M+2Na-H]+) [Å²]	Structure (SMILES)	also measured
303.93	–	CCCCCCCCCCCCC=CC[C@@H](O)[C@H](CO[C@@H]1O[C@H](CO)[C@@H](O)C(O)C1O)NC(=O)CC=CCC=CCCCCCCCCCCCCCCCCCCC (some centres undefined) [GlcCer(44:03)]	–
–	271.84	CCCCCCCCCC/C=C\CCCCCCCCCC(=O)O[C@H](COC(=O)CCCCCCCCCCCC)COP(=O)(O)O [PA(35:01)]	–
273.4	274.66	CCCCCCCC/C=C\CCCCCCCC(=O)O[C@H](COC(=O)CCCCCCCCCCCCCCCCC)COP(=O)(O)O [PA(36:01)]	–
285.81	–	CCCCC/C=C\C/C=C\CCCCCCCCCCCC(=O)O[C@H](COC(=O)CCCCCCCCCCCC)COP(=O)([O-])OCC[N+](C)(C)C [PC(35:02)]	–
276.03	275.64	CCCCCC/C=C\CCCCCCCCCC(=O)O[C@H](COC(=O)CCCCCCCCCCCCCCC)COP(=O)(O)OCCN [PE(34:01)]	collision cross section (N2) ([M+H]+): 270.06 Å²; collision cross section (N2) ([M+K]+): 277.57 Å²; collision cross section (N2) ([M-H]-): 266.91 Å²
273.06	273.28	CCCCC/C=C\C/C=C\CCCCCCCCCCCC(=O)O[C@H](COC(=O)CCCCCCCCCCC)COP(=O)(O)OCCN [PE(34:02)]	collision cross section (N2) ([M+H]+): 268.45 Å²; collision cross section (N2) ([M+K]+): 274.83 Å²; collision cross section (N2) ([M-H]-): 265.55 Å²
285.93	–	CCCCCCCC/C=C\CCCCCCCCCCCC(=O)O[C@H](COC(=O)CCCCCCCCCCCCCCC)COP(=O)(O)OCCN [PE(38:01)]	–
–	286.46	CCCCC/C=C\C/C=C\CCCCCCCCCC(=O)O[C@H](COC(=O)CCCCCCC/C=C\CCCCCCCC)COP(=O)(O)OCCN [PE(38:03)]	collision cross section (N2) ([M-H]-): 277.01 Å²
–	291.84	CCCCC/C=C\C/C=C\CCCCCCCC(=O)OC[C@H](COP(=O)(O)OCCN)OC(=O)CCCCCCCCCCCCCCCCCCCC [PE(39:02)]	–
–	289.33	CCCCC/C=C\C/C=C\CCCCCCCC(=O)O[C@H](COCCCCCCCCCCCCCCCCCCCC)COP(=O)(O)OCCN [PE(o38:02)]	–
283.24	287.42	CCCCC/C=C\C/C=C\C/C=C\CCCCC(=O)O[C@H](COCCCCCCCCCCCCCCCCCCCC)COP(=O)(O)OCCN [PE(o38:03)]	–
–	293.47	CCCCCCCCCC/C=C\CCCCCCCCCC(=O)O[C@H](COC(=O)CCCCCCCCCCCCCC)COP(=O)(O)OC[C@H](N)C(=O)O [PS(37:01)]	–
–	289.29	CCCCC/C=C\C/C=C\CCCCCCCCCCCC(=O)O[C@H](COC(=O)CCCCCCCCCCCCCC)COP(=O)(O)OC[C@H](N)C(=O)O [PS(37:02)]	–

More lines, now with the values behind:

Structure (SMILES)	collision cross section (N2) ([M+Na]+) [Å²]	collision cross section (N2) ([M+2Na-H]+) [Å²]	also measured
CCCCCCCCCCCCC=CC[C@@H](O)[C@H](CO[C@@H]1O[C@H](CO)[C@@H](O)C(O)C1O)NC(=O)CC=CCC=CCCCCCCCCCCCCCCCCCCCCCC (some centres undefined) [GlcCer(47:03)]	–	–	collision cross section (N2) ([M+H-2H2O]+): 307.66 Å²
CCCCCCCCCCCCCCCCCCCCCCCCCCCCCCC(=O)N[C@@H](CO[C@@H]1O[C@H](CO)[C@@H](O)C(O)C1O)[C@H](O)CCCCCCCCCCCCCCC (some centres undefined) [GlcCer(49:00)]	–	–	collision cross section (N2) ([M+Na-2H2O]+): 318.7 Å²
CCCC/C=C\CCCCCCCC(=O)OC[C@H](COP(=O)(O)O)OC(=O)CCCCCCCCC/C=C\CCCCCCCCCC [PA(36:02)]	272.25	273.1	–
CCCCC/C=C\C/C=C\C/C=C\C/C=C\CCCC(=O)O[C@H](COC(=O)CCCCCCCCCCCCCCC)COP(=O)(O)O [PA(36:04)]	268.39	270.03	–
CCCCC/C=C\C/C=C\CCCCCCCCCC(=O)O[C@H](COC(=O)CCCCCCC/C=C\C/C=C\CCCCC)COP(=O)(O)O [PA(38:04)]	276.54	276.1	–
CCCCCC/C=C/CCCCCCCCCC(=O)O[C@H](COC(=O)CCCCCCCCCCCCCCC)COP(=O)([O-])OCC[N+](C)(C)C [PC(34:01)]	284.83	283.9	collision cross section (N2) ([M+Cl]-): 290.47 Å²; collision cross section (N2) ([M+HCOO]-): 290.79 Å²; collision cross section (N2) ([M+H]+): 281.97 Å²; collision cross section (N2) ([M+K]+): 285.76 Å²
CCCCC/C=C\C/C=C\CCCC/C=C\CCCC(=O)O[C@H](COC(=O)CCCCCCCCCCCCCCCCC)COP(=O)([O-])OCC[N+](C)(C)C [PC(38:03)]	293.06	–	collision cross section (N2) ([M+Cl]-): 299.51 Å²
CC/C=C\C/C=C\C/C=C\C/C=C\C/C=C\CCCC(=O)O[C@H](COC(=O)CCCCCCC/C=C\CCCCCCCC)COP(=O)([O-])OCC[N+](C)(C)C [PC(38:06)]	–	–	collision cross section (N2) ([M+Cl]-): 296.13 Å²; collision cross section (N2) ([M+HCOO]-): 295.99 Å²
CC/C=C/C=C\C=C/C=C\C=C/C=C\CCCCCCCC(=O)O[C@H](COC(=O)CCCCCCCCCCCCCCCCC)COP(=O)([O-])OCC[N+](C)(C)C [PC(40:06)]	294.42	–	–
CCCCCCCC/C=C\CCCCCCCCCC(=O)O[C@H](COC(=O)CCCCCCCCCCC)COP(=O)(O)OCCN [PE(32:01)]	268.62	268.9	–
CCCCCCC/C=C\CCCCCCCC(=O)O[C@H](COC(=O)CCCCCCC/C=C\CCCCCCCC)COP(=O)(O)OCCN [PE(35:02)]	275.61	–	collision cross section (N2) ([M+K]+): 277.37 Å²
CCCCCCCCCCCCCCCCCCCCC(=O)OC[C@H](COP(=O)(O)OCCN)OC(=O)CCCCCCCCCCCCCC [PE(36:00)]	–	–	collision cross section (N2) ([M-H]-): 274.96 Å²
CCCCCC/C=C\CCCCCCCC(=O)OC[C@H](COP(=O)(O)OCCN)OC(=O)CCCCCCCCC/C=C\CCCCCCCC [PE(36:02)]	279.88	281.26	collision cross section (N2) ([M+H]+): 275.13 Å²; collision cross section (N2) ([M+K]+): 280.72 Å²; collision cross section (N2) ([M-H]-): 272.07 Å²
CC/C=C\C/C=C\C/C=C\C/C=C\CCCCC(=O)O[C@H](COC(=O)CCCCCCC/C=C\CCCCCCCC)COP(=O)(O)OCCN [PE(36:05)]	–	–	collision cross section (N2) ([M+K]+): 274.4 Å²
CCCCC/C=C\C/C=C\CCCCCCCC(=O)OC[C@H](COP(=O)(O)OCCN)OC(=O)CCCCCCC/C=C\CCCCCCCCC [PE(37:03)]	280.15	282.12	–
CC/C=C\C/C=C\C/C=C\C/C=C\CCCCC(=O)OC[C@H](COP(=O)(O)OCCN)OC(=O)CCCCCCCCC/C=C\C/C=C\CCCCC [PE(38:06)]	–	281	collision cross section (N2) ([M-H]-): 273.81 Å²
CCCCC/C=C\C/C=C\C/C=C\C/C=C\CCCCCC(=O)O[C@H](COC(=O)CCCC/C=C\C/C=C\C/C=C\CCCCC)COP(=O)(O)OCCN [PE(40:07)]	–	286.07	–
CC/C=C\C/C=C\C/C=C\C/C=C\C/C=C\C/C=C\CCC(=O)O[C@H](COC(=O)CCCCCCCCC/C=C\CCCCCCCC)COP(=O)(O)OCCN [PE(42:07)]	–	–	collision cross section (N2) ([M+K]+): 291.12 Å²
CCCCC/C=C\C/C=C\C/C=C\CCCCC(=O)O[C@H](COCCCCCCCCCCCCCCCC)COP(=O)(O)OCCN [PE(o34:03)]	270.85	271.58	–
CCCCC/C=C\C/C=C\C/C=C\C/C=C\CCCC(=O)O[C@H](COCCCCCCCCCCCCCCCCCC)COP(=O)(O)OCCN [PE(o38:04)]	–	284.68	–
CCCCCCCCCC/C=C\CCCCCCCCCC(=O)O[C@H](COC(=O)CCCCCCCCCCC)COP(=O)(O)OC[C@H](N)C(=O)O [PS(34:01)]	–	280.81	–
CCCCCCCCCCCCCCCCCC(=O)OC[C@H](COP(=O)(O)OC[C@H](N)C(=O)O)OC(=O)CCCCCCCCCCCCCCCCC [PS(36:00)]	–	–	collision cross section (N2) ([M-H]-): 284.03 Å²
CCCCC/C=C\C/C=C\C/C=C\CCCCCCC(=O)O[C@H](COC(=O)CCCCCCC/C=C\CCCCCCC)COP(=O)(O)OC[C@H](N)C(=O)O [PS(37:04)]	–	285.85	–
CCCCC/C=C\C/C=C\C/C=C\CCCCCCC(=O)O[C@H](COC(=O)CCCCCCC/C=C\CCCCCCCC)COP(=O)(O)OC[C@H](N)C(=O)O [PS(38:04)]	–	288.75	collision cross section (N2) ([M+H]+): 284.44 Å²; collision cross section (N2) ([M+K]+): 289.37 Å²; collision cross section (N2) ([M-H]-): 285.11 Å²
CCCCC/C=C\C/C=C\C/C=C\CCCCCCC(=O)O[C@H](COC(=O)CCCCCCC/C=C\C/C=C\CCCCC)COP(=O)(O)OC[C@H](N)C(=O)O [PS(38:05)]	–	285.68	collision cross section (N2) ([M+H]+): 281.67 Å²; collision cross section (N2) ([M+K]+): 286.6 Å²; collision cross section (N2) ([M-H]-): 283.69 Å²
